This note sets out measurements from ChEMBL document CHEMBL1130502, “Lipopeptide antifungal agents: Amine conjugates of the semi-synthetic pneumocandins L-731,373 and L-733,560” (Bioorg Med Chem Lett, 1997).

One may read the pIC50 as the IC50 on a negative log10 scale, so that one unit is a factor of ten. A lower pIC50 goes with a large IC50. What is called MFC is the lowest tested concentration that kills the fungus rather than only halting it. Higher therefore signals weaker fungicidal potency. As a reminder, the ED50 is the midpoint of the dose-response relation. A higher ED50 goes with a need for a large dose.

Each structure is given as a SMILES string. pIC50: −log10 of the molar value. Values after ≈ are worked out from the molar mass of the structure shown. *1 amine or outer side, *2 acyl side, *3 side chain or, on linkers, in order; H or OH if unused. Where a SMILES comes first, the peptide text is derived from it. Bridges are numbered along the chain shown (N, C = ends). [ ]: non-standard residue; d: D form. The star is where a group is joined. ξ: configuration not given here. ξOrn(4R-OH,5R-OH) = O=C(C(C[C@@H](O)[C@@H](O)N[*:3])N[*:1])[*:2]; hTyr(3S-OH,4S-OH) = N[C@H](C(=O)O)[C@H](O)[C@@H](O)c1ccc(O)cc1; Orn(3R-OH) = NCC[C@@H](O)[C@H](N)C(=O)O; X2 = O=C(C1CN([*:1])C[C@@H]1O)[*:2]; ξPro(4R-OH) = O=C(O)C1C[C@@H](O)CN1; X1 = CCC(C)CC(C)CCCCCCCCC(=O)*

One data set deals with 1,3-beta-glucan synthase (Candida glabrata, UniProt F5BCZ9). The experiment in a line: Inhibition of 1,3-beta-glucan synthase. Further details: species or system Candida glabrata CBS 138.
1,3-beta-glucan synthase, sequence (F5BCZ9 whole entry): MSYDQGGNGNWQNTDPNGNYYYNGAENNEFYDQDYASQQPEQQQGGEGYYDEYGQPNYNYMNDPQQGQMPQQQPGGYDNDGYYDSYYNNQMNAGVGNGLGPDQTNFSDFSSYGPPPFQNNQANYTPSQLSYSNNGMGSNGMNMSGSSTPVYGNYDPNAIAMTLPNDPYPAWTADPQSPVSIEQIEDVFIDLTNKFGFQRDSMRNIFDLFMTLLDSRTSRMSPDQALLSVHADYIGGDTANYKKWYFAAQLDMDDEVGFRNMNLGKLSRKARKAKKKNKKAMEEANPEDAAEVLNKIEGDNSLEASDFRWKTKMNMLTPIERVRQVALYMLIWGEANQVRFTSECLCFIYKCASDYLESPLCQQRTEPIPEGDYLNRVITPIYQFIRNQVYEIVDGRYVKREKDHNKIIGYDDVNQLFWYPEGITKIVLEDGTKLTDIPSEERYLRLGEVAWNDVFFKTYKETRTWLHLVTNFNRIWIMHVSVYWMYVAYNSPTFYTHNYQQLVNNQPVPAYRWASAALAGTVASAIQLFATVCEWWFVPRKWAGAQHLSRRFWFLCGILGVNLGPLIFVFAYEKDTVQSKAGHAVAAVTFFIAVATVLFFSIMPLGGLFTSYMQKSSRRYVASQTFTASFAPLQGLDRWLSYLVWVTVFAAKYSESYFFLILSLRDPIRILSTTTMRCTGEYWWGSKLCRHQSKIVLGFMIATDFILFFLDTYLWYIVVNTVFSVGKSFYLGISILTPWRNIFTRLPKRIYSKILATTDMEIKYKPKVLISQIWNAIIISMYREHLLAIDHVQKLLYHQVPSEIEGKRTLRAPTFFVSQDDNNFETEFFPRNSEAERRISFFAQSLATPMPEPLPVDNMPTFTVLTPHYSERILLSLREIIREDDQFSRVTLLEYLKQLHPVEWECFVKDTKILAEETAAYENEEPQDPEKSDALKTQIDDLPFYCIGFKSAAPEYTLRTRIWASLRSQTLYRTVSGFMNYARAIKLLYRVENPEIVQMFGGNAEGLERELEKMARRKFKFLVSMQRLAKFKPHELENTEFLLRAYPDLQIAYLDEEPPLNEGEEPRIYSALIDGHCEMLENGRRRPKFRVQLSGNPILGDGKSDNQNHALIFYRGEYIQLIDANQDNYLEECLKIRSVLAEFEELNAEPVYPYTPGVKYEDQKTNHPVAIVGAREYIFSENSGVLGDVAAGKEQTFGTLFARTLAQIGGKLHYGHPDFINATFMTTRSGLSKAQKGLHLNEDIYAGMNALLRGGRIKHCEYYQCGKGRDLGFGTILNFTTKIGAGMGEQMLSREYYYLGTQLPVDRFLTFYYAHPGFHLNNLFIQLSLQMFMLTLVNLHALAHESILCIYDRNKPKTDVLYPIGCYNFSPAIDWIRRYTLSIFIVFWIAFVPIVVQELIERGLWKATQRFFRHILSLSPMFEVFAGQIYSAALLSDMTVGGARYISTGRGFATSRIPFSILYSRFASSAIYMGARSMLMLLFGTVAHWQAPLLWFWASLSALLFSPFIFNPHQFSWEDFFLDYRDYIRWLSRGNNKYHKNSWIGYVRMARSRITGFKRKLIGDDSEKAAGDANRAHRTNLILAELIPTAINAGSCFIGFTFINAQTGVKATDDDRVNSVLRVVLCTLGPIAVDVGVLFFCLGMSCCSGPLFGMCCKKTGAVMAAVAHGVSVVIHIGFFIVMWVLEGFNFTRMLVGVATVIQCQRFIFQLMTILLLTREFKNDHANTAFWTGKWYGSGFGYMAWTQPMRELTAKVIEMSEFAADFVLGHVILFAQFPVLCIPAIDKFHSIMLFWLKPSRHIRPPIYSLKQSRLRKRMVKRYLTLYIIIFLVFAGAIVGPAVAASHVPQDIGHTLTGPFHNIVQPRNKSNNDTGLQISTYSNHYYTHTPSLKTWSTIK
The test system of another data set is Candida albicans. Nature of the data set: Tested for minimum fungicidal concentration (MFC) against Candida albicans (MY 1055). Type of data set: functional.
The species named for data set [1] is Mus musculus. Nature of the data set: […] anti-candida activity expressed as ED99.9 in a mouse model of disseminated candidiasis (TOKA). It counts as functional.
The species named for data set [2] is Mus musculus. Nature of the data set: Percentage of mice with complete eradication of candida in kidneys. Type of data set: functional, Kidney.
Data set [3] is described as follows: Acute toxicity in mice after intravenous administration. Particulars: mouse, in vivo.
For data set [4], the system named is Mus musculus. Nature of the data set: In vivo effective intraperitoneal dose to achieve least 50% survival in a mouse model of disseminated aspergillosis. Type of data set: functional. The note with it: ip.

As for `CCC(C)CC(C)CCCCCCCCC(=O)NC1C[C@@H](O)[C@@H](O)NC(=O)C2CN(C[C@@H]2O)C(=O)[C@H]([C@H](O)CCNC(=O)CCCCN)NC(=O)[C@H]([C@H](O)[C@@H](O)c2ccc(O)cc2)NC(=O)C2C[C@@H](O)CN2C(=O)[C@H]([C@@H](C)O)NC1=O` (stereo partly specified), on 1,3-beta-glucan synthase, the pIC50 is 7.70. The same compound had an MFC against Candida albicans of 0.5 µg/mL (≈ 0.435 µM). In the data set filed under Mus musculus [1], this compound came in with an ED99.9 of 1.5 mg/kg. This compound also returned a Sterilized in the data set filed under Mus musculus [2] of 0%. Besides, the Dose in data set [3] is 250 mg/kg.

In the case of `CCC(C)CC(C)CCCCCCCCC(=O)NC1C[C@@H](O)[C@@H](OCCN)NC(=O)C2CN(C[C@@H]2O)C(=O)[C@H]([C@H](O)CCNC(=O)[C@@H](N)CCN)NC(=O)[C@H]([C@H](O)[C@@H](O)c2ccc(O)cc2)NC(=O)C2C[C@@H](O)CN2C(=O)[C@H]([C@@H](C)O)NC1=O` (stereo partly specified), the pIC50 against 1,3-beta-glucan synthase was 8.22. The MFC in the data set with Candida albicans was 0.5 µg/mL (≈ 0.419 µM). Besides, in the data set listed under Mus musculus [1], the ED99.9 came to 0.09 mg/kg. In addition, in the data set listed under Mus musculus [2], the Sterilized worked out at 0%. In data set [3], this compound returned a Dose of 100 mg/kg.

In turn, `CCC(C)CC(C)CCCCCCCCC(=O)NC1C[C@@H](O)[C@@H](O)NC(=O)C2CN(C[C@@H]2O)C(=O)[C@H]([C@H](O)CCNC(=O)[C@@H](N)CCCCN)NC(=O)[C@H]([C@H](O)[C@@H](O)c2ccc(O)cc2)NC(=O)C2C[C@@H](O)CN2C(=O)[C@H]([C@@H](C)O)NC1=O` (stereo partly specified) gave a pIC50 against 1,3-beta-glucan synthase of 8.00. Moreover, the MFC with Candida albicans was < 0.06 µg/mL. The same compound came in with an ED99.9 in the data set filed under Mus musculus [1] of 0.375 mg/kg. The Sterilized in the data set listed under Mus musculus [2] was 20%. The Dose in data set [3] was 150 mg/kg.

In turn, `CCC(C)CC(C)CCCCCCCCC(=O)NC1C[C@@H](O)[C@@H](O)NC(=O)C2CN(C[C@@H]2O)C(=O)[C@H]([C@H](O)CCNC(=O)CCCCCN)NC(=O)[C@H]([C@H](O)[C@@H](O)c2ccc(O)cc2)NC(=O)C2C[C@@H](O)CN2C(=O)[C@H]([C@@H](C)O)NC1=O` (stereo partly specified) gave a pIC50 on 1,3-beta-glucan synthase of 7.05. The MFC in the data set with Candida albicans turned out to be 0.5 µg/mL (≈ 0.429 µM). In the data set filed under Mus musculus [1], the ED99.9 was >1.5 mg/kg. Moreover, in the data set filed under Mus musculus [2], the Sterilized is given as 0%. Moreover, the Dose in data set [3] came to 250 mg/kg.

On 1,3-beta-glucan synthase, `CCC(C)CC(C)CCCCCCCCC(=O)NC1C[C@@H](O)[C@@H](O)NC(=O)C2CN(C[C@@H]2O)C(=O)[C@H]([C@H](O)CCNC(C)=O)NC(=O)[C@H]([C@H](O)[C@@H](O)c2ccc(O)cc2)NC(=O)C2C[C@@H](O)CN2C(=O)[C@H]([C@@H](C)O)NC1=O` (stereo partly specified) gave a pIC50 of 6.52. Moreover, the MFC with Candida albicans came to 2 µg/mL (≈ 1.83 µM). Also, the ED99.9 in the data set listed under Mus musculus [1] was 12 mg/kg. Also, the Sterilized in the data set listed under Mus musculus [2] came to 0%. Moreover, in data set [3], the Dose is > 250 mg/kg.

In the data set on Candida albicans, `CCC(C)CC(C)CCCCCCCCC(=O)NC1C[C@@H](O)[C@@H](O)NC(=O)C2CN(C[C@@H]2O)C(=O)[C@H]([C@H](O)CCNC(=O)CCCCCCN)NC(=O)[C@H]([C@H](O)[C@@H](O)c2ccc(O)cc2)NC(=O)C2C[C@@H](O)CN2C(=O)[C@H]([C@@H](C)O)NC1=O` (stereo partly specified) showed an MFC of 2 µg/mL (≈ 1.7 µM). Moreover, the ED99.9 in the data set listed under Mus musculus [1] is >1.5 mg/kg. In the data set filed under Mus musculus [2], this compound displayed a Sterilized of 0%. For the same compound, the Dose in data set [3] amounted to 200 mg/kg.

As for `CCC(C)CC(C)CCCCCCCCC(=O)NC1C[C@@H](O)[C@@H](O)NC(=O)C2CN(C[C@@H]2O)C(=O)[C@H]([C@H](O)CCNC(=O)CN)NC(=O)[C@H]([C@H](O)[C@@H](O)c2ccc(O)cc2)NC(=O)C2C[C@@H](O)CN2C(=O)[C@H]([C@@H](C)O)NC1=O` (stereo partly specified), the pIC50 against 1,3-beta-glucan synthase was 7.82. This compound gave an MFC with Candida albicans of 0.5 µg/mL (≈ 0.451 µM). For the same compound, the ED99.9 in the data set filed under Mus musculus [1] turned out to be 0.375 mg/kg. This compound came in with a Sterilized in the data set listed under Mus musculus [2] of 20%. In data set [3], this compound gave a Dose of 250 mg/kg.

At 1,3-beta-glucan synthase, `CCC(C)CC(C)CCCCCCCCC(=O)NC1C[C@@H](O)[C@@H](O)NC(=O)C2CN(C[C@@H]2O)C(=O)[C@H]([C@H](O)CCNC(=O)[C@@H](N)CCN)NC(=O)[C@H]([C@H](O)[C@@H](O)c2ccc(O)cc2)NC(=O)C2C[C@@H](O)CN2C(=O)[C@H]([C@@H](C)O)NC1=O` (stereo partly specified) gave a pIC50 of 7.22. This compound came in with an MFC with Candida albicans of 0.25 µg/mL (≈ 0.217 µM). For the same compound, the ED99.9 in the data set listed under Mus musculus [1] came to 0.375 mg/kg. Besides, the Sterilized in the data set filed under Mus musculus [2] stood at 60%. The Dose in data set [3] was > 250 mg/kg.

With `CCC(C)CC(C)CCCCCCCCC(=O)NC1C[C@@H](O)[C@@H](O)NC(=O)C2CN(C[C@@H]2O)C(=O)[C@H]([C@H](O)CCNC(=O)CCN)NC(=O)[C@H]([C@H](O)[C@@H](O)c2ccc(O)cc2)NC(=O)C2C[C@@H](O)CN2C(=O)[C@H]([C@@H](C)O)NC1=O` (stereo partly specified), at 1,3-beta-glucan synthase, the pIC50 was 7.60. The MFC with Candida albicans was found to be 0.125 µg/mL (≈ 0.111 µM). In the data set filed under Mus musculus [1], the ED99.9 was determined as 1.5 mg/kg. In the data set listed under Mus musculus [2], this compound came in with a Sterilized of 100%. Moreover, the Dose in data set [3] worked out at 250 mg/kg.

For the compound `CCC(C)CC(C)CCCCCCCCC(=O)NC1C[C@@H](O)[C@@H](O)NC(=O)C2CN(C[C@@H]2O)C(=O)[C@H]([C@H](O)CCNC(=O)[C@@H](N)CCCN)NC(=O)[C@H]([C@H](O)[C@@H](O)c2ccc(O)cc2)NC(=O)C2C[C@@H](O)CN2C(=O)[C@H]([C@@H](C)O)NC1=O` (stereo partly specified), on 1,3-beta-glucan synthase, the pIC50 was 8.52. In the data set on Candida albicans, the MFC is < 0.06 µg/mL. For the same compound, in the data set filed under Mus musculus [1], the ED99.9 was 0.375 mg/kg. The compound further came in with a Sterilized in the data set listed under Mus musculus [2] of 20%. Moreover, in data set [3], the Dose is > 200 mg/kg.

At 1,3-beta-glucan synthase, `CCC(C)CC(C)CCCCCCCCC(=O)NC1C[C@@H](O)[C@@H](O)NC(=O)C2CN(C[C@@H]2O)C(=O)[C@H]([C@H](O)CCN)NC(=O)[C@H]([C@H](O)[C@@H](O)c2ccc(O)cc2)NC(=O)C2C[C@@H](O)CN2C(=O)[C@H]([C@@H](C)O)NC1=O` (stereo partly drawn) (X1-[ξOrn(4R-OH,5R-OH)]T[ξPro(4R-OH)][hTyr(3S-OH,4S-OH)][Orn(3R-OH)][X2]; lactam 1-C) gave a pIC50 of 8.00. Moreover, the MFC against Candida albicans was < 0.06 µg/mL. In the data set listed under Mus musculus [1], this compound registered an ED99.9 of 0.375 mg/kg. Moreover, in the data set on Mus musculus [4], the ED50 is > 20 mg/kg. The same compound displayed a Sterilized in the data set filed under Mus musculus [2] of 70%. Further, the Dose in data set [3] is 100 mg/kg.

Turning to `CCC(C)CC(C)CCCCCCCCC(=O)NC1C[C@@H](O)[C@@H](OCCN)NC(=O)C2CN(C[C@@H]2O)C(=O)[C@H]([C@H](O)CCNC(=O)[C@@H](N)CCCCN)NC(=O)[C@H]([C@H](O)[C@@H](O)c2ccc(O)cc2)NC(=O)C2C[C@@H](O)CN2C(=O)[C@H]([C@@H](C)O)NC1=O` (stereo partly specified), the pIC50 against 1,3-beta-glucan synthase was 8.52. In the data set on Candida albicans, this compound gave an MFC of 0.125 µg/mL (≈ 0.102 µM). In the data set filed under Mus musculus [1], this compound registered an ED99.9 of 0.09 mg/kg. Also, in the data set with Mus musculus [4], the ED50 is < 0.02 mg/kg. In the data set listed under Mus musculus [2], this compound gave a Sterilized of 0%. The Dose in data set [3] is 60 mg/kg.

At 1,3-beta-glucan synthase, `CCC(C)CC(C)CCCCCCCCC(=O)NC1C[C@@H](O)[C@@H](O)NC(=O)C2CN(C[C@@H]2O)C(=O)[C@H]([C@H](O)CCNC(=O)CCCN)NC(=O)[C@H]([C@H](O)[C@@H](O)c2ccc(O)cc2)NC(=O)C2C[C@@H](O)CN2C(=O)[C@H]([C@@H](C)O)NC1=O` (stereo partly specified) gave a pIC50 of 7.30. Further, the MFC against Candida albicans was < 0.06 µg/mL. In the data set filed under Mus musculus [1], this compound yielded an ED99.9 of 1.5 mg/kg. Further, the Sterilized in the data set listed under Mus musculus [2] is 40%. Besides, the Dose in data set [3] is > 100 mg/kg.
